Source: paper PMC8836832, “Novel Aurora A Kinase Inhibitor Fangchinoline Enhances Cisplatin–DNA Adducts and Cisplatin Therapeutic Efficacy in OVCAR-3 Ovarian Cancer Cells-Derived Xenograft Model” (International Journal of Molecular Sciences, 2022)
Structures can show the parent of a compound that is named as a salt.

Legend:
MDH2774 = experiment: cells; set-up: MTT cell viability assay, absorbance at 575 nm, MDAH 2774 cells; details: Homo sapiens, MDAH 2774, 48 h
Experimental: (§1) The cell viability effects of 12 candidate compounds were evaluated by MTT assay and compared against a control group (medium containing 0.1% DMSO). The cells were seeded in 96-well plates and pre-cultured for 24 h (1 × 10^5 cells/well). The cells were then incubated for 48 h with the 12 identified compounds (at 0, 3.125, 6.25, 12.5, 25, 50, or 100 µM) dissolved in 0.1% DMSO. After 48 h, MTT solution (2.5 mg/mL in DMEM) was added to the cells and incubated for 1 h. DMSO was added to dissolve the purple crystals, and the absorbance values were measured at 575 nm using a spectrophotometer (SPECTROstar Nano; BMG LABTECH, Offenburg, Germany). Each treatment group has four biological replicates (n = 4). The IC50 values for each compound in each cell line were obtained using the results of the MTT assay and calculated using the GraphPad Prism 6 program (GraphPad Software, Inc., San Diego, CA, USA). A CI higher than 1.0 indicates an antagonistic effect, a CI equal to 1.0 indicates an additive effect, and a CI lower than 1.0 indicates a synergistic effect.

SKOV3 = experiment: cells; set-up: MTT cell viability assay, absorbance at 575 nm, SK-OV-3 cells; details: Homo sapiens, SK-OV-3, 48 h
Experimental: as §1

OVCAR3 = experiment: cells; set-up: MTT cell viability assay, absorbance at 575 nm, OVCAR-3 cells; details: Homo sapiens, OVCAR-3, 48 h
Experimental: as §1

ES2 = experiment: cells; set-up: MTT cell viability assay, absorbance at 575 nm, ES-2 cells; details: Homo sapiens, ES-2, 48 h
Experimental: as §1

[1] = molecular target: T1, Aurora A kinase (Aurora A) (Homo sapiens, UniProt O14965); experiment: in vitro Aurora A kinase assay kit (Promega V1931, luminescence), dose-dependent at […]; supported by CETSA in MDAH […] and OVCAR-3 cells; assay type: biochemical
T1 construct: gene AURKA
T1 sequence (O14965 1-403): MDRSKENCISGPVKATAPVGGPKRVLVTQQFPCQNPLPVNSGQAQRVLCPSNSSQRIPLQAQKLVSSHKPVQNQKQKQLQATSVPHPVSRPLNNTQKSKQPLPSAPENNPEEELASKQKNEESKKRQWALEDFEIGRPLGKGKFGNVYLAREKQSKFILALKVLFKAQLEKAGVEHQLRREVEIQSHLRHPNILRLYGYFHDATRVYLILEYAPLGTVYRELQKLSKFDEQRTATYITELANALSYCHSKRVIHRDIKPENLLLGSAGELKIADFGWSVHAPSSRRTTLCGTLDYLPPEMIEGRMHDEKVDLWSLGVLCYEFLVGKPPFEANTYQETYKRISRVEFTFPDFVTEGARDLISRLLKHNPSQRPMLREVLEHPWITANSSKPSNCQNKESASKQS

Compound	IC50 (SKOV3) [µM]	IC50 (OVCAR3) [µM]	IC50 (MDH2774) [µM]	IC50 (ES2) [µM]	in vitro Aurora A kinase assay kit (Promega V1931, luminescence), dose-dependent [1]
O=c1cc(-c2ccc(O)c(-c3c(O)cc(O)c4c(=O)cc(-c5ccc(O)cc5)oc34)c2)oc2cc(O)cc(O)c12 [Amentoflavone]	78.9 ± 0.8		99.32 ± 0.03		
C/C=C(\C)C(=O)N[C@@H](c1ccccc1)[C@@H](O)C(=O)O[C@H]1C[C@@]2(O)[C@@H](OC(=O)c3ccccc3)[C@@H]3[C@]4(OC(C)=O)CO[C@@H]4C[C@H](O)[C@@]3(C)C(=O)[C@H](OC(C)=O)C(=C1C)C2(C)C [Cephalomannine]	10.79 ± 0.01	41.78 ± 0.013	41.72 ± 0.01		
COc1cc2c(cc1OC)-c1cc3ccc(OC)c(OC)c3c[n+]1CC2 [Palmatine hydrochloride]	59.33 ± 0.02		51.29 ± 0.34		
O=C(O)c1cc(O)c2c(c1)[C@@H]([C@H]1c3cc(C(=O)O)cc(O)c3C(=O)c3c(O[C@@H]4O[C@H](CO)[C@@H](O)[C@H](O)[C@H]4O)cccc31)c1cccc(O[C@@H]3O[C@H](CO)[C@@H](O)[C@H](O)[C@H]3O)c1C2=O [Sennoside B]	> 100				
COc1ccc2cc1Oc1ccc(cc1)C[C@H]1c3cc(c(OC)cc3CCN1C)Oc1c(O)c(OC)cc3c1[C@H](C2)N(C)CC3 [fangchinoline]	11.7 ± 1.2	9.66 ± 0.3	8.71 ± 0.24	25.1 ± 0.65	Figure 2C shows that fangchinoline treatment significantly decreased Aurora A enzymatic activity in a dose-dependent manner.

The next lines start with results.

IC50 (SKOV3) [µM]	IC50 (OVCAR3) [µM]	Compound	IC50 (MDH2774) [µM]	IC50 (ES2) [µM]	in vitro Aurora A kinase assay kit (Promega V1931, luminescence), dose-dependent [1]
39.38 ± 0.02	20.56 ± 0.021	COc1ccc2cc3[n+](cc2c1OC)CCc1cc2c(cc1-3)OCO2 [Berberine]	12.8 ± 1.24	87.6 ± 0.02	
25.1 ± 1.9	24.9 ± 0.74	O=C(/C=C/c1ccc(O)cc1)CC(=O)/C=C/c1ccc(O)cc1 [Bisdemethoxycurcumin]	26 ± 0.53	45.5 ± 0.5	
21.48 ± 0.01	40.59 ± 0.015	CC(=O)O[C@@]12CO[C@@H]1C[C@H](O)[C@@]1(C)C(=O)[C@H](O)C3=C(C)[C@@H](OC(=O)[C@H](O)[C@@H](NC(=O)OC(C)(C)C)c4ccccc4)C[C@@](O)([C@@H](OC(=O)c4ccccc4)[C@H]21)C3(C)C [Docetaxel]	24.55 ± 0.011	50.38 ± 0.25	
34.7 ± 0.02	22.64 ± 0.03	Cc1cc(O)c2c(c1)C(=O)c1cc(O)cc(O)c1C2=O [Emodin]	34.32 ± 0.021	50.2 ± 2.09	
26 ± 0.44	25.8 ± 1.21	O=C(/C=C/c1ccc(O)cc1)c1ccc(O)cc1O [Isoliquiritigenin]	50.36 ± 0.48	51.46 ± 0.32	
26.1 ± 0.49	25.4 ± 0.68	CN1CCc2cc3c(cc2C(=O)Cc2cc4c(cc2C1)OCO4)OCO3 [Protopine]			
